EP3305781A1, “CHEMICAL SUBSTANCES WHICH INHIBIT THE ENZYMATIC ACTIVITY OF HUMAN KALLIKREIN-RELATED PEPTIDASE 6 (KLK6)” (Deutsches Krebsforschungszentrum, priority 2016, dated 2018)
Like-named read-outs stand apart in the source and are kept apart here.

Key:
Experiment in all cases: Biochemical inhibition assay, fluorogenic substrate FSR-AMC
[1] = molecular target: KLK6 (Homo sapiens, UniProt Q92876)
Experimental: (§1) In a 384 well plate, 5 µL of eleven concentrations of inhibitor in 8% DMSO (serial dilution 2:1) and a blank were incubated with an equal amount of enzyme (KLK6, Thrombin, Trypsin or Factor Xa) diluted in 50 mM Tris pH 7.5, 150 mM NaCl, 1 mM EDTA, 0.05% Tween20 assay buffer for 30 minutes. […] Inhibition of the enzyme as a function of the inhibitor concentration was used to generate dose response curves, which allowed estimating IC50 values, according to the following equation in GraphPad Prism: y = ymin + (ymax−ymin)/(1+10^(((LogIC50−x)*HillSlope))) [formula]
(§2) Assay final concentrations: • KLK6: 5 nM • Trypsin: 0.88 ng/mL • Thrombin: 9.8·10^-5 NIH unit/mL • Factor Xa: 4 nM • FSR-AMC: 20 µM

[2] = molecular target: Trypsin (Homo sapiens, UniProt P07477)
Experimental: as §1, §2

[3] = molecular target: Factor Xa (Homo sapiens, UniProt P00742)
Experimental: as §1, §2

[4] = molecular target: Thrombin (Homo sapiens, UniProt P00734)
Experimental: as §1, §2

[5] = read-out: KLK6 IC50, KLK6 5 nM (produced in insect cells), 30 min incubation with inhibitor, FSR-AMC 20 µM, Tris pH 7.5
[6] = read-out: Trypsin IC50, Trypsin 0.88 ng/mL, 30 min incubation with inhibitor, FSR-AMC 20 µM, Tris pH 7.5
[7] = read-out: Factor Xa IC50, Factor Xa 4 nM, 30 min incubation with inhibitor, FSR-AMC 20 µM, Tris pH 7.5
[8] = read-out: Thrombin IC50, Thrombin 9.8·10^-5 NIH unit/mL, 30 min incubation with inhibitor, FSR-AMC 20 µM, Tris pH 7.5

Factor Xa, sequence (P00742 235-488 limits assumed): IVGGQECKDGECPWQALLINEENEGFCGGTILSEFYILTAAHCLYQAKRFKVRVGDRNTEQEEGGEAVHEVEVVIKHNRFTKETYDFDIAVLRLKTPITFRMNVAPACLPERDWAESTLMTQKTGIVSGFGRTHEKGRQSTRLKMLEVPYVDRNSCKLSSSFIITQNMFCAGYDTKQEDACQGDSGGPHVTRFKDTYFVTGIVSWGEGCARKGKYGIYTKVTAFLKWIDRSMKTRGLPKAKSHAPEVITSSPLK
Factor Xa, sequence (P00742 41-179 partner limits assumed): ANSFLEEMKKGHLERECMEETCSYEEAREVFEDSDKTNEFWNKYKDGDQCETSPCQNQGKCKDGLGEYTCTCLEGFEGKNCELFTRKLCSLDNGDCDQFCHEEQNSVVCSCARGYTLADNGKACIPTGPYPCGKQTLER

Structure (SMILES) | IC50 [1, 5] | IC50 [2, 6] | IC50 [3, 7] | IC50 [4, 8] | IC50 [2] | IC50 [3] | IC50 [4] | IC50 [1]
Cc1nn(-c2ccccc2)c(C)c1NC(=O)C(C)OC(=O)Cn1c(C)cc2ccccc21 (racemic) [compound 37] | 1.48 µM | > 50 µM | > 50 µM | > 50 µM | – | – | – | –
Cc1nn(-c2ccccc2)c(C)c1NC(=O)COC(=O)Cn1c(C)cc2ccccc21 [compound 1, 2-((3,5-dimethyl-1-phenyl-1H-pyrazol-4-yl)amino)-2-oxoethyl 2-(2-methyl-H-indol-1-yl)acetate] | – | – | – | – | 39.4 µM | > 200 µM | > 200 µM | –
Cc1nn(C)c(C)c1NC(=O)COC(=O)Cn1c(C)cc2ccccc21 [compound 2, 2-oxo-2-((1,3,5-trimethyl-1H-pyrazol-4-yl)amino)ethyl 2-(2-methyl-1H-indol-1-yl)acetate] | – | – | – | – | 71.5 µM | > 200 µM | > 200 µM | 1.25 µM
Cc1cccc(-n2nc(C)c(NC(=O)COC(=O)Cn3c(C)cc4ccccc43)c2C)c1 [compound 3, 2-((3,5-dimethyl-1-(m-tolyl)-1H-pyrazol-4-yl)amino)-2-oxoethyl 2-(2-methyl-1H-indol-1-yl)acetate] | – | – | – | – | 65.7 µM | > 200 µM | > 200 µM | 0.371 µM
Cc1nn(-c2ccc(C(F)(F)F)cc2)c(C)c1NC(=O)COC(=O)Cn1c(C)cc2ccccc21 [compound 4, 2-((3,5-dimethyl-1-(4-(trifluoromethyl)phenyl)-1H-pyrazol-4-yl)amino)-2-oxoethyl 2-(2-methyl-1H-indol-1-yl)acetate] | – | – | – | – | > 200 µM | > 200 µM | > 200 µM | 2.89 µM
Cc1nn(-c2ccccc2[N+](=O)[O-])c(C)c1NC(=O)COC(=O)Cn1c(C)cc2ccccc21 [compound 5, 2-((3,5-dimethyl-1-(2-nitrophenyl)-1H-pyrazol-4-yl)amino)-2-oxoethyl 2-(2-methyl-1H-indol-1-yl)acetate] | – | – | – | – | 51 µM | 50 µM | > 200 µM | 0.172 µM
Cc1nn(-c2ccc(C#N)cc2)c(C)c1NC(=O)COC(=O)Cn1c(C)cc2ccccc21 [compound 6, 2-((1-(4-cyanophenyl)-3,5-dimethyl-1H-pyrazol-4-yl)amino)-2-oxoethyl 2-(2-methyl-1H-indol-1-yl)acetate] | – | – | – | – | > 200 µM | > 200 µM | > 200 µM | 0.439 µM
COc1ccc(Cn2nc(C)c(NC(=O)COC(=O)Cn3c(C)cc4ccccc43)c2C)cc1 [compound 7, 2-((1-(4-methoxybenzyl)-3,5-dimethyl-1H-pyrazol-4-yl)amino)-2-oxoethyl 2-(2-methyl-1H-indol-1-yl)acetate] | – | – | – | – | > 200 µM | > 200 µM | > 200 µM | 0.598 µM
Cc1nn(-c2ccccc2C(F)(F)F)c(C)c1NC(=O)COC(=O)Cn1c(C)cc2ccccc21 [compound 8, 2-((3,5-dimethyl-1-(2-(trifluoromethyl)phenyl)-1H-pyrazol-4-yl)amino)-2-oxoethyl 2-(2-methyl-1H-indol-1-yl)acetate] | – | – | – | – | 126 µM | 139 µM | > 200 µM | 0.258 µM
Cc1ccc(-n2nc(C)c(NC(=O)COC(=O)Cn3c(C)cc4ccccc43)c2C)cc1 [compound 9, 2-((3,5-dimethyl-1-(p-tolyl)-1H-pyrazol-4-yl)amino)-2-oxoethyl 2-(2-methyl-1H-indol-1-yl)acetate] | – | – | – | – | 67.1 µM | > 200 µM | 197 µM | 0.267 µM
Cc1nn(-c2ccc([N+](=O)[O-])cc2)c(C)c1NC(=O)COC(=O)Cn1c(C)cc2ccccc21 [compound 10, 2-((3,5-dimethyl-1-(4-nitrophenyl)-1H-pyrazol-4-yl)amino)-2-oxoethyl 2-(2-methyl-1H-indol-1-yl)acetate] | – | – | – | – | > 200 µM | > 200 µM | > 200 µM | 0.994 µM
Cc1nn(-c2ccccc2)c(C)c1NC(=O)COC(=O)Cn1ccc2ccccc21 [compound 11, 2-((3,5-dimethyl-1-phenyl-1H-pyrazol-4-yl)amino)-2-oxoethyl 2-(1H-indol-1-yl)acetate] | – | – | – | – | > 200 µM | > 200 µM | > 200 µM | 14.5 µM
Cc1nn(-c2ccccc2)c(C)c1NC(=O)COC(=O)Cc1c[nH]c2ccccc12 [compound 12, 2-((3,5-dimethyl-1-phenyl-1H-pyrazol-4-yl)amino)-2-oxoethyl 2-(1H-indol-3-yl)acetate] | – | – | – | – | 139 µM | 135 µM | > 200 µM | –
Cc1ccc(-n2nc(C)c(NC(=O)COC(=O)Cc3c[nH]c4ccccc34)c2C)cc1 [compound 13, 2-((3,5-dimethyl-1-(p-tolyl)-1H-pyrazol-4-yl)amino)-2-oxoethyl 2-(1H-indol-3-yl)acetate] | – | – | – | – | 133 µM | 162 µM | > 200 µM | 6.47 µM
Cc1nn(-c2ccccc2)c(C)c1NC(=O)COC(=O)Cn1cc(C)c2ccccc21 [compound 14, 2-((3,5-dimethyl-1-phenyl-1H-pyrazol-4-yl)amino)-2-oxoethyl 2-(3-methyl-1H-indol-1-yl)acetate] | – | – | – | – | > 200 µM | > 200 µM | > 200 µM | 16.2 µM
Cc1nn(-c2ccccc2)c(C)c1NC(=O)COC(=O)Cn1c(C)c(C)c2ccccc21 [compound 15] | 4.72 µM | 144 µM | > 200 µM | > 200 µM | – | – | – | –
Cc1nn(-c2ccccc2)c(C)c1NC(=O)COC(=O)Cn1c(C(F)(F)F)cc2ccccc21 [compound 16] | 0.158 µM | > 200 µM | > 200 µM | > 200 µM | – | – | – | –
Cc1cc(C)n(CC(=O)OCC(=O)Nc2c(C)nn(-c3ccccc3)c2C)n1 [compound 17] | 109 µM | > 200 µM | > 200 µM | > 200 µM | – | – | – | –
Cc1nn(-c2ccccc2)c(C)c1NC(=O)COC(=O)Cc1cn(C)c2ccccc12 [compound 18] | 11.6 µM | 149 µM | 50.5 µM | > 200 µM | – | – | – | –
Cc1nn(-c2ccc(NCCCCO)cc2)c(C)c1NC(=O)COC(=O)Cn1c(C)cc2ccccc21 [compound 19] | 0.264 µM | 21.3 µM | > 200 µM | > 200 µM | – | – | – | –

Structure (SMILES) | IC50 [1, 5] | IC50 [2, 6] | IC50 [3, 7] | IC50 [4, 8] | IC50 [2] | IC50 [3] | IC50 [4] | IC50 [1]
Cc1ccc(-n2nc(C)c(NC(=O)COC(=O)Cn3c(C(F)(F)F)cc4ccccc43)c2C)cc1 [compound 20] | 0.24 µM | > 200 µM | > 200 µM | > 200 µM | – | – | – | –
Cc1nn(-c2ccc([N+](=O)[O-])cc2)c(C)c1NC(=O)COC(=O)Cn1c(C(F)(F)F)cc2ccccc21 [compound 21] | 112 µM | > 200 µM | > 200 µM | > 200 µM | – | – | – | –
Cc1nn(-c2ccc(N)cc2)c(C)c1NC(=O)COC(=O)Cn1c(C)cc2ccccc21 [compound 22] | 0.486 µM | 105 µM | > 200 µM | > 200 µM | – | – | – | –
Cc1nn(-c2ccccc2N)c(C)c1NC(=O)COC(=O)Cn1c(C)cc2ccccc21 [compound 23] | 0.375 µM | > 200 µM | > 200 µM | > 200 µM | – | – | – | –
Cc1ccccc1NC(=O)COC(=O)Cn1c(C)cc2ccccc21 [compound 26] | – | > 50 µM | > 50 µM | > 50 µM | – | – | – | –
Cc1nn(-c2ccccc2)c(C)c1NC(=O)COC(=O)Cn1c(C)cc2cc(Cl)ccc21 [compound 30] | – | > 50 µM | > 50 µM | > 50 µM | – | – | – | –
Cc1nn(-c2ccccc2)c(C)c1NC(=O)COC(=O)Cc1c(C)[nH]c2ccccc12 [compound 38] | – | 27.4 µM | > 50 µM | > 50 µM | – | – | – | –
Cc1nn(-c2ccccc2)c(C)c1NC(=O)C1(OC(=O)Cn2c(C)cc3ccccc32)CC1 [compound 40] | – | > 50 µM | > 50 µM | > 50 µM | – | – | – | –
Cc1nn(-c2ccccc2)c(C)c1NC(=O)COC(=O)Cc1cccc2ccccc12 [compound 42] | – | > 50 µM | – | > 50 µM | – | – | – | –
Cc1nn(-c2ccccc2)c(C)c1NC(=O)COC(=O)Cc1ccccc1 [compound 43] | – | > 50 µM | – | > 50 µM | – | – | – | –
Cc1nn(-c2ccccc2)c(C)c1NC(=O)COC(=O)Cc1ccc(N)cc1 [compound 44] | 12.2 µM | > 50 µM | – | > 50 µM | – | – | – | –
Cc1nn(-c2ccccc2)c(C)c1NC(=O)COC(=O)Cc1ccccc1Cl [compound 45] | 1.36 µM | > 50 µM | – | > 50 µM | – | – | – | –
Cc1nn(-c2ccccc2)c(C)c1NC(=O)COC(=O)Cc1ccc(C#N)cc1 [compound 46] | 29.4 µM | > 50 µM | – | > 50 µM | – | – | – | –
Cc1nn(-c2ccccc2)c(C)c1NC(=O)COC(=O)Cc1ccccc1Br [compound 48] | – | > 200 µM | > 200 µM | > 200 µM | – | – | – | –
Cc1nn(-c2ccccc2)c(C)c1NC(=O)COC(=O)Cc1ccsc1 [compound 70] | – | > 200 µM | > 200 µM | > 200 µM | – | – | – | –
Cc1[nH]c2ccccc2c1CC(=O)OCC(=O)Nc1ccc(N2CCOCC2)cc1 [compound 76] | – | > 200 µM | > 200 µM | > 200 µM | – | – | – | –
Cc1nn(-c2ccccc2)c(C)c1NC(=O)COC(=O)C(C)c1c(C)[nH]c2ccccc12 (centres unmarked) [compound 81] | – | > 200 µM | > 200 µM | > 200 µM | – | – | – | –
Cc1[nH]c2ccccc2c1CC(=O)OCC(=O)Nc1cncnc1 [compound 86] | – | > 200 µM | 148 µM | 66.1 µM | – | – | – | –
Cc1nn(-c2ccccc2)c(C)c1NC(=O)COC(=O)CCc1c(C)[nH]c2ccccc12 [compound 87] | – | > 200 µM | > 200 µM | > 200 µM | – | – | – | –
